According to the supplement of paper PMC11208160:

Test: recombinant barcode read abundance after kanamycin selection (control-corrected) (log10(CPM+1)); higher = more efficient recombination; sequences stand for … in AGTGCAGAGAAAATCGGCCAGTTTTCTCTGCCTGCAGTCCGCATGCCGT…ATTTATGCAGCGGACTGCCTTTCTCCCAAAGTGATAAACCGGACAGTATCATGGACCGGTTTTCCCGGTAATCCGTATTTGCAAGGTTGGTTTCACT; site = the 11-nt target
How it was run: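 IS621 bridge RNA target-binding loops were paired with targets in a pooled library tested in E. coli. After co-electroporation with a donor plasmid, cells were plated in two replicates on chloramphenicol/ampicillin LB agar (control) and on chloramphenicol/ampicillin/kanamycin carrying 0.1 mM IPTG. Barcodes at recombinant junctions were counted as counts per million, averaged and control-corrected to give recombination efficiency. Values are log10(CPM+1).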

| Sequence | recombinant barcode read abundance (log10) |
| --- | --- |
| TCTACCCCTTGGGTTCTAACCTGTTGCTGAA [TCTACCCCTCA_LTGcore_CT_RTGcore_TT] (site TCTACCCCTCA) (LTG core: CT, RTG core: TT) | 0.241 |
| TCTACCCCTTGGGTTCTAACCTGTTGCTGGG [TCTACCCCTCA_LTGcore_CT_RTGcore_CC] (site TCTACCCCTCA) (LTG core: CT, RTG core: CC) | 0.28 |
| TCTACCCCTTGGGTTCTAACCTGTTGCTGTG [TCTACCCCTCA_LTGcore_CT_RTGcore_CA] (site TCTACCCCTCA) (LTG core: CT, RTG core: CA) | 0.182 |
| TCTACCCTGTGGGTTCTAACCTGTTGCTGAG [TCTACCCCTCA_LTGcore_TG_RTGcore_CT] (site TCTACCCCTCA) (LTG core: TG, RTG core: CT) | 0.0669 |
| TCTACCCTGTGGGTTCTAACCTGTTGCTGCA [TCTACCCCTCA_LTGcore_TG_RTGcore_TG] (site TCTACCCCTCA) (LTG core: TG, RTG core: TG) | 0.0126 |
| TGATACCATTGGGTTCTAACCTGTTGCGTAT [TGATACCCTAC_LTGcore_AT_RTGcore_AT] (site TGATACCCTAC) (LTG core: AT, RTG core: AT) | 0.0803 |
| TGATACCCCTGGGTTCTAACCTGTTGCGTGG [TGATACCCTAC_LTGcore_CC_RTGcore_CC] (site TGATACCCTAC) (LTG core: CC, RTG core: CC) | 0.351 |
| TGATACCCTTGGGTTCTAACCTGTTGCGTGC [TGATACCCTAC_LTGcore_CT_RTGcore_GC] (site TGATACCCTAC) (LTG core: CT, RTG core: GC) | 1.67 |
| TGATACCCTTGGGTTCTAACCTGTTGCGTGT [TGATACCCTAC_LTGcore_CT_RTGcore_AC] (site TGATACCCTAC) (LTG core: CT, RTG core: AC) | 0.0827 |
| TGATACCCTTGGGTTCTAACCTGTTGCGTTC [TGATACCCTAC_LTGcore_CT_RTGcore_GA] (site TGATACCCTAC) (LTG core: CT, RTG core: GA) | 0.335 |
| TGATACCCTTGGGTTCTAACCTGTTGCGTTT [TGATACCCTAC_LTGcore_CT_RTGcore_AA] (site TGATACCCTAC) (LTG core: CT, RTG core: AA) | 0.666 |
| TGATACCGCTGGGTTCTAACCTGTTGCGTAG [TGATACCCTAC_LTGcore_GC_RTGcore_CT] (site TGATACCCTAC) (LTG core: GC, RTG core: CT) | 0.164 |
| TGATACCTCTGGGTTCTAACCTGTTGCGTAG [TGATACCCTAC_LTGcore_TC_RTGcore_CT] (site TGATACCCTAC) (LTG core: TC, RTG core: CT) | 0.146 |
| TGATACCTTTGGGTTCTAACCTGTTGCGTAG [TGATACCCTAC_LTGcore_TT_RTGcore_CT] (site TGATACCCTAC) (LTG core: TT, RTG core: CT) | 0.0115 |
| TGTATTCAGTGGGTTCTAACCTGTTGCCTAG [TGTATTCCTAG_LTGcore_AG_RTGcore_CT] (site TGTATTCCTAG) (LTG core: AG, RTG core: CT) | 0.0134 |
| TGTATTCATTGGGTTCTAACCTGTTGCCTAT [TGTATTCCTAG_LTGcore_AT_RTGcore_AT] (site TGTATTCCTAG) (LTG core: AT, RTG core: AT) | 0.144 |
| TGTATTCCATGGGTTCTAACCTGTTGCCTTG [TGTATTCCTAG_LTGcore_CA_RTGcore_CA] (site TGTATTCCTAG) (LTG core: CA, RTG core: CA) | 0.579 |
| TGTATTCCGTGGGTTCTAACCTGTTGCCTAG [TGTATTCCTAG_LTGcore_CG_RTGcore_CT] (site TGTATTCCTAG) (LTG core: CG, RTG core: CT) | 0.356 |
| TGTATTCCGTGGGTTCTAACCTGTTGCCTCG [TGTATTCCTAG_LTGcore_CG_RTGcore_CG] (site TGTATTCCTAG) (LTG core: CG, RTG core: CG) | 0.0909 |

| Sequence | recombinant barcode read abundance (log10) |
| --- | --- |
| TGTATTCCTTGGGTTCTAACCTGTTGCCTAC [TGTATTCCTAG_LTGcore_CT_RTGcore_GT] (site TGTATTCCTAG) (LTG core: CT, RTG core: GT) | 0.0923 |
| TGTATTCCTTGGGTTCTAACCTGTTGCCTCA [TGTATTCCTAG_LTGcore_CT_RTGcore_TG] (site TGTATTCCTAG) (LTG core: CT, RTG core: TG) | 0.1 |
| TGTATTCCTTGGGTTCTAACCTGTTGCCTCT [TGTATTCCTAG_LTGcore_CT_RTGcore_AG] (site TGTATTCCTAG) (LTG core: CT, RTG core: AG) | 0.0303 |
| TGTATTCCTTGGGTTCTAACCTGTTGCCTTG [TGTATTCCTAG_LTGcore_CT_RTGcore_CA] (site TGTATTCCTAG) (LTG core: CT, RTG core: CA) | 0.0735 |
| TGTATTCTCTGGGTTCTAACCTGTTGCCTAG [TGTATTCCTAG_LTGcore_TC_RTGcore_CT] (site TGTATTCCTAG) (LTG core: TC, RTG core: CT) | 0.0135 |
| TTATAAAAATGGGTTCTAACCTGTTGCCTTT [TTATAAACTAG_LTGcore_AA_RTGcore_AA] (site TTATAAACTAG) (LTG core: AA, RTG core: AA) | 0.038 |
| TTATAAAACTGGGTTCTAACCTGTTGCCTAG [TTATAAACTAG_LTGcore_AC_RTGcore_CT] (site TTATAAACTAG) (LTG core: AC, RTG core: CT) | 0.39 |
| TTATAAAATTGGGTTCTAACCTGTTGCCTAG [TTATAAACTAG_LTGcore_AT_RTGcore_CT] (site TTATAAACTAG) (LTG core: AT, RTG core: CT) | 0.0851 |
| TTATAAAATTGGGTTCTAACCTGTTGCCTAT [TTATAAACTAG_LTGcore_AT_RTGcore_AT] (site TTATAAACTAG) (LTG core: AT, RTG core: AT) | 0.124 |
| TTATAAACCTGGGTTCTAACCTGTTGCCTGG [TTATAAACTAG_LTGcore_CC_RTGcore_CC] (site TTATAAACTAG) (LTG core: CC, RTG core: CC) | 0.0325 |
| TTATAAACTTGGGTTCTAACCTGTTGCCTAC [TTATAAACTAG_LTGcore_CT_RTGcore_GT] (site TTATAAACTAG) (LTG core: CT, RTG core: GT) | 0.944 |
| TTATAAACTTGGGTTCTAACCTGTTGCCTAT [TTATAAACTAG_LTGcore_CT_RTGcore_AT] (site TTATAAACTAG) (LTG core: CT, RTG core: AT) | 0.302 |
| TTATAAACTTGGGTTCTAACCTGTTGCCTGG [TTATAAACTAG_LTGcore_CT_RTGcore_CC] (site TTATAAACTAG) (LTG core: CT, RTG core: CC) | 0.574 |
| TTATAAACTTGGGTTCTAACCTGTTGCCTTT [TTATAAACTAG_LTGcore_CT_RTGcore_AA] (site TTATAAACTAG) (LTG core: CT, RTG core: AA) | 0.0604 |
| TTATAAAGTTGGGTTCTAACCTGTTGCCTAG [TTATAAACTAG_LTGcore_GT_RTGcore_CT] (site TTATAAACTAG) (LTG core: GT, RTG core: CT) | 0.109 |
| TTATAAATATGGGTTCTAACCTGTTGCCTTA [TTATAAACTAG_LTGcore_TA_RTGcore_TA] (site TTATAAACTAG) (LTG core: TA, RTG core: TA) | 0.855 |
| TTATAAATGTGGGTTCTAACCTGTTGCCTAG [TTATAAACTAG_LTGcore_TG_RTGcore_CT] (site TTATAAACTAG) (LTG core: TG, RTG core: CT) | 0.083 |
| TTATAAATTTGGGTTCTAACCTGTTGCCTAG [TTATAAACTAG_LTGcore_TT_RTGcore_CT] (site TTATAAACTAG) (LTG core: TT, RTG core: CT) | 0.0473 |
